These results are taken from US7135307B2, “Gamma three protease” (Merck & Co., Inc., priority 2001, dated 2006).

What all share (format): biochemical
Assay [1] concerns γ-secretase activity associated with presenilin-1/presenilin-2. The assay can be described thus: γ-secretase activity in HeLa S3 cell membranes, C100Flag substrate, ECL detection of Aβ.
For assay [2], the system named is γ3 protease. The experiment in a line: γ3 protease activity in HeLa S3 cell membranes, C100Flag substrate, ECL detection of Aβ. From the text:
The source of γ3 protease was a membrane preparation from HeLa S3 cells prepared as in Example 9. The production of the γ3 protease substrate and the conditions for cleavage are described in Example 10. The procedure for determining whether the substrate had been cleaved by γ3 protease was as in Example 6.
(§1) Aβ peptides were detected using a sandwich assay employing an antibody to capture the peptide and an antibody to detect the presence of the peptide. Detection was achieved by using electrochemiluminescence (ECL) (Yang et al., 1994, Bio/Technology 12:193–194; Khorkova et al., 1998, J. Neurosci. Meth. 82:159–166) and an Origen 1.5 Analyzer (Igen Inc., Gaithersburg, Md.).
(§2) Capture was performed using the 4G8 murine monoclonal antibody (Senetek PLC, Maryland Heights, Mo.). The 4G8 murine monoclonal antibody binds an epitope in the Aβ peptide (about amino acids 18–21 of SEQ.ID.NO.:3) that is immediately distal to the α-secretase cleavage site. The 4G8 monoclonal antibody was biotinylated with Biotin-LC-Sulfo-NHS-Ester (Igen Inc., Gaithersburg, Md.).
Detection was achieved using the G2-10 murine monoclonal antibody and the FCA3542 rabbit antibody. […]
The G2-10 and FCA3542 antibodies were ruthenylated with TAG-NHS Ester (Igen Inc., Gaithersburg, Md.). Aβ(x-40) was detected with biotinylated 4G8 and ruthenylated G2-10. Aβ(x-42) was detected with biotinylated 4G8 and ruthenylated FCA3542. […]

Assay [3] has as its system γ-secretase activity associated with presenilins 1 and 2. The experiment in a line: γ-secretase activity in ES-PBD18 membranes (wild-type mouse embryonic stem cells), generation of Aβ1-40 and Aβ1-42. The note with it: 1 μM inhibitor, FIG. 2A, 2B. On the procedure:
The presence of γ3 protease activity having a pH optimum of about 6 is clearly seen. […] Again, the presence of γ3 protease activity having a pH optimum of about 6 is clearly seen. The source of γ3 protease was ES-PBD18 membranes. ES-PBD18 membranes were prepared from wild-type mouse embryonic stem cells according to the procedure of Example 11.
(§3) Another method for product detection, employing electrochemiluminescence with a capture antibody and an antibody specific for either Aβ1-40 or Aβ1-42, is described in Example 6 below.
as §1
• 1. […]

For assay [4], the system named is γ3 protease. The assay can be described thus: Inhibition of γ3 protease production of Aβ peptides by pepstatin A, ECL detection.
Description: as §3, §1, §2
Detection was achieved using the G2-10 murine monoclonal antibody and the FCA3542 rabbit antibody. The G2-10 murine monoclonal antibody (provided by K. Beyreuther, University of Heidelberg, Germany) binds the C-terminus that is exposed after γ3 protease-mediated cleavage to generate amino acid 40 of the Aβ1-40 peptide. (Ida et al., 1996, J. Biol. Chem. 271:22908–22914). The FCA3542 rabbit antibody (provided by F. Checler, IPMC du CNRS, Valbonne, France) binds the C-terminus that is exposed after γ3 protease-mediated cleavage to generate amino acid 42 of the Aβ1-42 peptide. (Barelli et al., 1997, Mol. Med. 3:695–707.)
The G2-10 and FCA3542 antibodies were ruthenylated with TAG-NHS Ester (Igen Inc., Gaithersburg, Md.). Aβ(x-40) was detected with biotinylated 4G8 and ruthenylated G2-10. Aβ(x-42) was detected with biotinylated 4G8 and ruthenylated FCA3542.

Each structure is given as a SMILES string. Where a SMILES comes first, the peptide text is derived from it. [ ]: non-standard residue; d: D form. The star is where a group is joined. Sta = CC(C)C[C@H](N)[C@@H](O)CC(=O)O; Isovaleryl = CC(C)CC(=O)*

For `CC(C)C[C@H](NC(=O)[C@H](Cc1ccccc1)C[C@@H](O)[C@H](Cc1ccccc1)NC(=O)OC(C)(C)C)C(=O)N[C@@H](Cc1ccccc1)C(N)=O` [L-685,458, {1S-Benzyl-4-R-[1-(1S-carbamoyl-2-phenylethylcarbamoyl)-1S-3-methylbutylcarbamoyl]-2R-hydroxy-5-phenylpentyl}carbamic acid tert-butyl ester], the “inhibition of the activity of the γ secretase complex containing presenilin-1 or presenilin-2” value in assay [1] (general statement) is reported as “inhibited”. The “block of γ-secretase activity” value in assay [1] (pH 7.0 (pH optimum for presenilin-1/presenilin-2 associated γ-secretase), HeLa S3 membranes, FIG. 1) is “essentially completely block”. Besides, the “susceptibility of γ3 protease activity to inhibition” value in the assay with γ3 protease [2] (general statement) is “not susceptible to inhibition”. For the same compound, the “γ-secretase-type activity remaining in the presence of inhibitor (γ3 protease)” value in the assay on γ3 protease [2] (pH 6.0 (pH optimum for γ3 protease), HeLa S3 membranes, FIG. 1) is recorded as “significant γ-secretase activity remains”. Also, the “inhibition of γ-secretase activity associated with presenilins 1 and 2” value in assay [3] is reported as “essentially completely inhibit”.
On to `CC(C)CC(=O)N[C@H](C(=O)N[C@H](C(=O)N[C@@H](CC(C)C)[C@@H](O)CC(=O)N[C@@H](C)C(=O)N[C@@H](CC(C)C)[C@@H](O)CC(=O)O)C(C)C)C(C)C` [pepstatin A] (Isovaleryl-VV[Sta]A[Sta]-OH), for which the “inhibition of production of Aβ1-40 by γ3 protease” value in the assay with γ3 protease [4] (FIG. 3A) is given as “inhibits”. In the assay on γ3 protease [4] (FIG. 3B), the “inhibition of production of Aβ1-42 by γ3 protease” value was “inhibits”. Further, the “inhibition of γ3 protease activity” value in the assay with γ3 protease [4] (general statement (aspartyl class protease)) is “inhibited”.
